Reference: PMC4032193 (Journal of Medicinal Chemistry, 2014)
pIC50: −log10 of the molar value. Like-named read-outs stand apart in the source and are kept apart here.

Key:
in vitro = settings: mouse, microsomes
[1] = tested on: HepG2 (hepatocellular carcinoma) cell line; settings: human
BoNT/A LC = BoNT/A LC (Clostridium botulinum, UniProt P0DPI0); assay: biochemical
[2] = mouse
[3] = human
P. berghei = settings: mouse, in vivo
[4] = tested on: P. falciparum African D6 clone; assay: microbe, parasite or virus in culture; assay type: cell-based; settings: Plasmodium falciparum, D6, read-out: D6 IC50
[5] = tested on: P. falciparum Indochina W2 clone; assay: microbe, parasite or virus in culture; assay type: cell-based; settings: Plasmodium falciparum, W2, read-out: W2 IC50
[6] = tested on: P. falciparum multidrug resistant TM91C235 strain (Thailand); assay: microbe, parasite or virus in culture; assay type: cell-based; settings: Plasmodium falciparum, read-out: TM91C235 IC50

Chain of BoNT/A LC (P0DPI0 2-448 limits assumed): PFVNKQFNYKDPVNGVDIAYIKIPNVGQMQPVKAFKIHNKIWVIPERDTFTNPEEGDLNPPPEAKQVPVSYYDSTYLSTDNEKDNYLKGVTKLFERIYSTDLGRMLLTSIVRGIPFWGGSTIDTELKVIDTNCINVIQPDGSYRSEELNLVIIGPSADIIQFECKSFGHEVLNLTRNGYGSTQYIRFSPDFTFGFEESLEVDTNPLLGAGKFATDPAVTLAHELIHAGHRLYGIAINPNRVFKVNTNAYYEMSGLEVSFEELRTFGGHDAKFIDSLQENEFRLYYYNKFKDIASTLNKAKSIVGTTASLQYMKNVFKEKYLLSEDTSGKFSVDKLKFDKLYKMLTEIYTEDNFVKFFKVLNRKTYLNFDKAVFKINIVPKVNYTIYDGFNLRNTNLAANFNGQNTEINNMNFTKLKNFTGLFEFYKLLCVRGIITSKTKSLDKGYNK

Row | Structure (SMILES) | SI HepG2/D6 [1] | SI HepG2/TM91C235 [1] | SI HepG2/W2 [1] | other results
1 | CC(=O)O[C@H]1C[C@H]2[C@@H]([C@H](OC(C)=O)C[C@@H]3C[C@H](N(C)C)CC[C@@]32C)[C@@H]2CC[C@H]([C@H](C)CCCN(C)CCNc3ccnc4cc(Cl)ccc34)[C@@]12C [Compound 56, 24-N-Methyl-N-[(7-chloroquinoline-4-yl)amino]ethylamino-3α-N′,N′-dimethylamino-7α,12α-diacetoxy-5β-cholane] | 6824/3920/3176 | 6824/3920/3176 | 6824/3920/3176 | half-life (in vitro): > 1 h
2 | N=C(N)c1ccc(Oc2ccc(-c3cc4ccc(C(=N)N)cc4[nH]3)cc2)cc1 [NSC 240898, reference compound] | – | – | – | inhibition at 20 µM (BoNT/A LC): 73.3%
3 | CC(=O)O[C@H]1C[C@H]2[C@@H]([C@H](OC(C)=O)C[C@@H]3C[C@H](O)CC[C@@]32C)[C@@H]2CC[C@H]([C@H](C)CCCNCCCNc3ccnc4cc(Cl)ccc34)[C@@]12C [Compound 17] | 84/115/90 | 84/115/90 | 84/115/90 | half-life (in vitro): > 1 h
4 | CC(=O)O[C@H]1C[C@H]2[C@@H]([C@H](OC(C)=O)C[C@@H]3C[C@H](N(C)C)CC[C@@]32C)[C@@H]2CC[C@H]([C@H](C)CCCNCCNc3ccnc4cc(Cl)ccc34)[C@@]12C [Compound 50, 24-N-[(7-Chloroquinoline-4-yl)amino]ethylamino-3α-N′,N′-dimethylamino-7α,12α-diacetoxy-5β-cholane] | 714/333/435 | 714/333/435 | 714/333/435 | MLM stability (t1/2) [2]: 60/60 min; HLM stability (t1/2) [3]: 60/60 min
5 | CC(=O)O[C@H]1C[C@H]2[C@@H]([C@H](OC(C)=O)C[C@@H]3C[C@H](NS(C)(=O)=O)CC[C@@]32C)[C@@H]2CC[C@H]([C@H](C)CCCN(C)CCCNc3ccnc4cc(Cl)ccc34)[C@@]12C [Compound 43] | 93/89/139 | 93/89/139 | 93/89/139 | half-life (in vitro): > 1 h
6 | CC(=O)O[C@H]1C[C@H]2[C@@H]([C@H](OC(C)=O)C[C@@H]3C[C@H](N)CC[C@@]32C)[C@@H]2CC[C@H]([C@H](C)CCCN(C)CCNc3ccnc4cc(Cl)ccc34)[C@@]12C [Compound 54, 24-N-Methyl-N-[(7-chloroquinoline-4-yl)amino]ethylamino-3α-amino-7α,12α-diacetoxy-5β-cholane] | 4993/3995/2327 | 4993/3995/2327 | 4993/3995/2327 | MLM stability (t1/2) [2]: 60/60 min; HLM stability (t1/2) [3]: 60/60 min; protection/cure of mice (P. berghei): failed to protect/cure mice; day postinfection on which mice died (P. berghei; po): 13; signs of compound toxicity upon necropsy (P. berghei; po): no signs of tissue damage caused by compound toxicity
7 | CCN(CC)CCCC(C)Nc1ccnc2cc(Cl)ccc12 (stereo not drawn) [Compound 9, chloroquine] | – | – | – | pIC50 [4]: 7.91
8 | CC(=O)O[C@H]1C[C@H]2[C@@H]([C@H](OC(C)=O)C[C@@H]3C[C@H](NC(=O)OC(C)(C)C)CC[C@@]32C)[C@@H]2CC[C@H]([C@H](C)CCCN(CCCNc3ccnc4cc(Cl)ccc34)CCC[C@@H](C)[C@H]3CC[C@H]4[C@@H]5[C@H](OC(C)=O)C[C@@H]6C[C@H](NC(=O)OC(C)(C)C)CC[C@]6(C)[C@H]5C[C@H](OC(C)=O)[C@]34C)[C@@]12C [Compound 59, N,N-Di(3α-amino-tert-butylcarbamate-7α,12α-diacetoxy-5β-cholan-24-yl)-N′-(7′-chloroquinoline-4′-yl)-1,3-propanediamine] | 96/96/96 | 96/96/96 | 96/96/96 | inhibition at 20 µM (BoNT/A LC; at 20 μM): 6%
9 | CC(=O)O[C@@H]1CC[C@@]2(C)[C@@H](C1)C[C@@H](OC(C)=O)[C@@H]1[C@@H]2C[C@H](OC(C)=O)[C@]2(C)[C@@H]([C@H](C)CCCNCCNc3ccnc4cc(Cl)ccc34)CC[C@@H]12 [Compound 12, N-(3α,7α,12α-Triacetoxy-5β-cholan-24-yl)-N′-(7′-chloroquinolin-4′-yl)ethane-1,2-diamine] | – | – | – | pIC50 [4]: 7.77; pIC50 [5]: 7.94; pIC50 [6]: 7.56
10 | CC(=O)O[C@H]1C[C@H]2[C@@H]([C@H](OC(C)=O)C[C@@H]3C[C@H](N(C)C)CC[C@@]32C)[C@@H]2CC[C@H]([C@H](C)CCCN(C)CCCNc3ccnc4cc(Cl)ccc34)[C@@]12C [Compound 57] | 93/35/71 | 93/35/71 | 93/35/71 | MLM stability (t1/2) [2]: 60/60 min; HLM stability (t1/2) [3]: 60/60 min
11 | CC(=O)N[C@@H]1CC[C@@]2(C)[C@@H](C1)C[C@@H](OC(C)=O)[C@@H]1[C@@H]2C[C@H](OC(C)=O)[C@]2(C)[C@@H]([C@H](C)CCCNCCNc3ccnc4cc(Cl)ccc34)CC[C@@H]12 [Compound 36, 24-N-[(7-Chloroquinoline-4-yl)amino]ethylamino-3α-acetamido-7α,12α-diacetoxy-5β-cholane] | 126/116/126 | 126/116/126 | 126/116/126 | –
